For orientation: IC50 means the concentration that gives 50% inhibition.

Assay [1] has as its system solid tumor xenograft models. As to conditions: Carol et al. 2013; cited from earlier work.
The test system of assay [2] is acute lymphoblastic leukemia (ALL) xenograft models with mixed-lineage leukemia (MLL) rearrangement. To be noted: Carol et al. 2013; cited from earlier work.
For assay [3], the system named is human acute myeloid leukemia (AML) xenograft models harboring p53 wild-type. To be noted: Tovar et al. 2013; cited from earlier work.
Assay [4] concerns human prostate tumor xenograft models harboring p53 wild-type. As to conditions: Tovar et al. 2013; cited from earlier work.
The target in assay [5] is T1, MDM2 (Homo sapiens, UniProt Q00987).
T1 construct: 20 nM GST-MDM2 protein (aa 23-117)
The experiment in a line: Mdm2-p53 Inhibition AlphaScreen. The assay is classed as binding. As to conditions: 20 nM GST-MDM2 protein (aa 23-117), 20 nM biotinylated p53 wt peptide. The procedure:
Mdm2-p53 Inhibition AlphaScreen
15 μL of compound in 20% DMSO (serial pre-dilutions of compound are done in 100% DMSO) is pipetted to the wells of a white OptiPlate-96 (PerkinElmer). A mix consisting of 20 nM GST-MDM2 protein (aa 23-117) and 20 nM biotinylated p53 wt peptide (encompassing aa 16-27 of wt human p53, amino acid sequence QETFSDLWKLLP-Ttds-Lys-Biotin, molecular weight 2132.56 g/mol) is prepared in assay buffer (50 mM Tris/HCl pH 7.2; 120 mM NaCl; 0.1% bovine serum albumin (BSA); 5 mM dithiothreitol (DTT); 1 mM ethylenediaminetetraacetic acid (EDTA); 0.01% Tween 20). 30 μL of the mix is added to the compound dilutions and incubated for 15 min at rt while gently shaking the plate at 300 rounds per minute (rpm). Subsequently, 15 μL of premixed AlphaLISA Glutathione Acceptor Beads and AlphaScreen Streptavidin Donor Beads from PerkinElmer (in assay buffer at a concentration of 10 μg/mL each) are added and the samples are incubated for 30 min at rt in the dark (shaking 300 rpm). Afterwards, the signal is measured in a PerkinElmer Envision HTS Multilabel Reader using the AlphaScreen protocol from PerkinElmer.
Each plate contains negative controls where biotinylated p53-peptide and GST-MDM2 are left out and replaced by assay buffer. Negative control values are entered as low basis value when using the software GraphPad Prism for calculations. Furthermore, a positive control (5% DMSO instead of test compound; with protein/peptide mix) is pipetted. Determination of IC50 values are carried out using GraphPad Prism 3.03 software (or updates thereof).

T1 sequence (Q00987 23-117): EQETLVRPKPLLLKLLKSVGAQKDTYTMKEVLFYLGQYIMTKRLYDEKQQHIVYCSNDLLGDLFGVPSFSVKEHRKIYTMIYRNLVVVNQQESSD

Take `CCOc1cc(C(C)(C)C)ccc1C1=N[C@@](C)(c2ccc(Cl)cc2)[C@@](C)(c2ccc(Cl)cc2)N1C(=O)N1CCN(CCCS(C)(=O)=O)CC1` [RG7112]: the tumor growth inhibition entry in assay [1] is on record as “induced tumor growth inhibition”. Further, the efficacy result in assay [2] is listed as “particularly efficacious”. Further, the “antiproliferative and proapoptotic activity” value in assay [3] is “antiproliferative and proapoptotic activity”; in assay [4], “antiproliferative and proapoptotic activity”.

`CCOc1cccc(CN2[C@H]3CCN(CC4CC4C(=O)O)[C@H]3[C@H](c3cccc(Cl)c3F)[C@]23C(=O)Nc2cc(Cl)ccc23)c1` (some centres unmarked) [Compound I-64] showed a concentration for half-maximal inhibition (IC50) in assay [5] of 6 nM.

On to `O=C(O)c1[nH]ncc1CN1CC[C@H]2[C@@H]1[C@H](c1cccc(Cl)c1F)[C@]1(C(=O)Nc3cc(Cl)ccc31)N2CC1CC1` [Compound I-72], for which the concentration for half-maximal inhibition (IC50) in assay [5] was 1300 nM.

In assay [5], `CC(=O)N1CC[C@H]2C1[C@H](c1cccc(Cl)c1F)[C@]1(C(=O)Nc3cc(Cl)ccc31)N2CC1CC1` (some centres unmarked) [Compound I-76] had a half-inhibitory concentration (IC50) of 212 nM.

Consider `O=C(O)c1ccc([C@H]2C[C@H]3[C@@H](N2)[C@H](c2cccc(Cl)c2F)[C@]2(C(=O)Nc4cc(Cl)ccc42)N3CC2CC2)cc1` [Compound I-29], for which inhibition in assay [5] was half-maximal at 5 nM (IC50).

Values taken from patent publication US10138251B2, “Spiro[3H-indole-3,2′-pyrrolidin]-2(1H)-one compounds and derivatives as MDM2-P53 inhibitors” (Boehringer Ingelheim International GmbH, priority 2014, dated 2018).
